Reference: patent publication US20220034903A1, “Therapies That Target Autoimmunity For Treating Glaucoma And Optic Neuropathy” (The Schepens Eye Research Institute, Inc., priority 2011, published 2022)

Tests used:
Assay type in all cases: in vivo
RGCs [1] = experiment: AION (ischemic optic neuropathy), RGC loss in retinal flat-mounts; settings: WT mice, injected into the vitreous at 3, 7 and 14 days post injury, sacrificed 4 weeks after AION, vs IgG isotype
Experimental: OKT3 antibody was injected into the vitreous of ischemia WT mice at 3, 7, and 14 days post injury. Injection of IgG isotype served as the control. All of the recipient mice were sacrificed at 4 weeks after AION.
(§1) A standard procedure for quantification of RGC axon loss in optic nerve sections was used, e.g., as described in Cho et al., J Cell Sci 118, 863-872. (2005). Axonal density was calculated, and the percentage of axon loss was determined by comparing with the axon density calculated from corresponding regions of the contralateral control eyes. RGC loss was assessed quantitatively in retinal flat-mounts that were incubated with a primary antibody against a RGC specific marker, β-III-tubulin (Fournier, A. E. & McKerracher, L. Biochem Cell Biol 73, 659-664 (1995); Fitzgerald et al., Investigative ophthalmology & visual science (2009); Tuj1; Sigma-Aldrich, St.), followed by a Alexa Fluor 488-conjugated secondary antibody. The degree of RGC loss was assessed as previously described (Chen et al., Investigative ophthalmology & visual science 52, 36-44 (2011)). The total numbers and densities of RGCs were calculated, and the percentage of RGC loss was determined by comparing RGC number with that obtained from the corresponding regions of the contralateral control eyes. […]

retinal activity = experiment: Electroretinogram a and b wave after AION; settings: mice with AION, vs IgG isotype-injected ischemia group, different intensity of light stimulation
RGCs [2] = experiment: Optic nerve crush injury, RGC loss at 4 weeks; settings: wild-type mice, rapamycin i.p. 100 μg/day, 4 weeks post-optic nerve crush (87% loss without treatment)
Experimental: FIG. 9 is a bar chart showing that suppressing autoimmunity using immuno-deficient mice or immune suppressor promotes RGC survival after optic neuropathy. Optic never crush injury was performed in wild-type (wt) mice that received daily injection of PBS (wt) or rapamycin (Rapam) as well as in Rag1^−/− (Rag1) and TCRβ^−/− (TCRβ) mice. Animals were sacrificed 4 weeks post operation, and percentage of RGC loss was assessed. (*P<0.01 as compared to the normal subject group).
as §1, with “(2011)).” for “(2011)). The total numbers and densities of RGCs were calculated, and the percentage of RGC loss was determined by comparing RGC number with that obtained from the corresponding regions of the contralateral control eyes.”

Molecule: OKT3 antibody: monoclonal antibody targeted at the CD3 receptor on T cells; clinically approved immunosuppressant
- effect on RGC loss after AION (RGCs [1]): neuroprotective effect
- retinal function (electroretinogram a and b wave) after AION (retinal activity): functional rescue of retinal activity

Molecule: CO[C@H]1C[C@@H]2CC[C@@H](C)[C@@](O)(O2)C(=O)C(=O)N2CCCC[C@H]2C(=O)O[C@H]([C@H](C)C[C@@H]2CC[C@@H](O)[C@H](OC)C2)CC(=O)[C@H](C)/C=C(\C)[C@@H](O)[C@@H](OC)C(=O)[C@H](C)C[C@H](C)/C=C/C=C/C=C/1C [rapamycin]
- RGC loss (RGCs [2]): 65%
